Source: patent US20110009343A1, “MODULATORS OF AMYLOID AGGREGATION” (Praecis Pharmaceuticals, Inc., priority 1995, published 2011)
Peptide text beside a SMILES is read from it. * marks the point of attachment. Cholyl = C[C@H](CCC(=O)*)[C@H]1CC[C@H]2[C@@H]3[C@H](O)C[C@@H]4C[C@H](O)CC[C@]4(C)[C@H]3C[C@H](O)[C@]12C

Columns and labels:
Aβ1-40 [1] = biological target: T1, Aβ1-40 (Homo sapiens, UniProt P05067); assay: Nucleation assay (turbidity, A405 nm); assay type: biochemical; settings: for inhibition at 100 mol % / % Inucl'n (percent reduction in maximum observed turbidity): 100 mole % inhibitor;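 as to all read-outs here: synthetic Aβ monomer polymerization followed by turbidity in 96-well plates with continuous shaking, read every 15 minutes over 5 hours, compared against wells lacking test compound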
T1 construct: (β-AP1-40) was obtained commercially from Bachem (Torrance, Calif.); purchased Bachem (Torrance, Calif.)
T1 sequence (P05067 672-711): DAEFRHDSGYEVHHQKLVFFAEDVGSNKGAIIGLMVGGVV

Aβ1-40 [2] = biological target: T1, Aβ1-40; assay: Seeded extension assay (thioflavin T fluorescence); assay type: biochemical; settings: Table V; 25 mole % inhibitor
Method: The seeded extension assay can be employed to measure the rate of Aβ fiber formed in a solution of Aβ monomer following addition of polymeric Aβ fiber “seed”. The ability of test compounds to prevent further deposition of monomeric Aβ to previously deposited amyloid is determined using a direct indicator of β-sheet formation using fluorescence. In contrast with the nucleation assay, the addition of seed provides immediate nucleation and continued growth of preformed fibrils without the need for continuous mixing, and thus results in the absence of a lag time before polymerization starts. Since this assay uses static polymerization conditions, the activity of positive compounds in the nucleation assay can be confirmed in this second assay under different conditions and with an additional probe of amyloid structure.
In the seeded extension assay, monomeric Aβ140 is incubated in the presence of a “seed” nucleus (approximately ten mole percent of Aβ that has been previously allowed to polymerize under controlled static conditions). Samples of the solution are then diluted in thioflavin T (Th-T). The polymer-specific association of Th-T with Aβ produces a fluorescent complex that allows the measurement of the extent of fibril formation (Levine, H. (1993) Protein Science 2:404-410). In particular, association of Th-T with aggregated β-AP, but not monomeric or loosely associated β-AP, gives rise to a new excitation (ex) maximum at 450 nm and an enhanced emission (em) at 482 nm, compared to the 385 nm (ex) and 445 nm (em) for the free dye. Small aliquots of the polymerization mixture contain sufficient fibril to be mixed with Th-T to allow the monitoring of the reaction mixture by repeated sampling. A linear growth curve is observed in the presence of excess monomer. The formation of thioflavin T responsive β-sheet fibrils parallels the increase in turbidity observed using the nucleation assay.
To prepare the stock seed, 1 ml of the Aβ monomer preparation, is incubated for approximately 8 days at 37° C. and sheared sequentially through an 18, 23, 26 and 30 gauge needle 25, 25, 50, and 100 times respectively. 2 μl samples of the sheared material is taken for fluorescence measurements after every 50 passes through the 30 gauge needle until the fluorescence units (FU) plateau (approx. 100-150×). Test compounds are prepared by dissolving an appropriate amount of test compound in 1×PBS to a final concentration of 1 mM (10× stock). If insoluble, the compound is dissolved in 1/10 volume of DMSO and diluted in 1×PBS to 1 mM. A further 1/10 dilution is also prepared to test each candidate at both 100 μM and 10 μM.
To perform the seeded extension assay, each sample is set up with 50 μl of 200 μM monomer, 125 FU sheared seed (a variable quantity dependent on the batch of seed, routinely 3-6 μl) and 10 μl of 10× modulator solution. The sample volume is then adjusted to a final volume of 100 μl with 1×PBS. Two concentrations of each modulator typically are tested: 100 μM and 10 μM, equivalent to a 1:1 and a 1:10 molar ratio of monomer to modulator. The controls include an unseeded reaction to confirm that the fresh monomer contains no seed, and a seeded reaction in the absence of any modulators, as a reference to compare against candidate modulators. The assay is incubated at 37° C. for 6 h, taking 2 μl samples hourly for fluorescence measurements. To measure fluorescence, a 2 μl sample of Aβ is added to 400 μl of Thioflavin-T solution (50 mM Potassium Phosphate […] pH 7.5). The samples are vortexed and the fluorescence is read in a 0.5 ml micro quartz cuvette at EX 450 nm and EM 482 nm (Hitachi 4500 Fluorimeter).

[3] = Table V, 100 mole % inhibitor relative to Aβ1-40
[4] = Table V, read-out: % Inucl'n (percent reduction in maximum observed turbidity)

SMILES	Fold Increase in Lag Time (Aβ1-40 [1]; Table IV, 100 mole %) [fold]	ΔLag (ratio of lag time with test compound to lag time of control) (Aβ1-40 [1]; [3])	inhibition at 100 mol % (Aβ1-40 [1]; [4]) [%]	% Inucl'n (percent reduction in maximum observed turbidity) (Aβ1-40 [1]; Table V) [%]	further results
CC(C)C[C@H](NC(=O)[C@H](CCCCN)NC(=O)[C@H](CCC(N)=O)NC(=O)[C@H](Cc1c[nH]cn1)NC(=O)[C@H](Cc1c[nH]cn1)NC(=O)CC[C@@H](C)[C@H]1CC[C@H]2[C@@H]3[C@H](O)C[C@@H]4C[C@H](O)CC[C@]4(C)[C@H]3C[C@H](O)[C@]12C)C(=O)N[C@H](C(=O)N[C@@H](Cc1ccccc1)C(=O)N[C@@H](Cc1ccccc1)C(=O)O)C(C)C [PPI-347, cholyl-Aβ13-20] (Cholyl-HHQKLVFF-OH)					Fold Increase in Lag Time (Aβ1-40 [1]; Table III, 33 mole %): 2.6 fold; Fold Increase in Lag Time (Aβ1-40 [1]; Table IV, 10 mole %): 2.2 fold
CC(C)C[C@H](NC(=O)[C@H](CCCCN)NC(=O)[C@H](CCC(N)=O)NC(=O)[C@H](Cc1c[nH]cn1)NC(=O)CC[C@@H](C)[C@H]1CC[C@H]2[C@@H]3[C@H](O)C[C@@H]4C[C@H](O)CC[C@]4(C)[C@H]3C[C@H](O)[C@]12C)C(=O)N[C@H](C(=O)N[C@@H](Cc1ccccc1)C(=O)N[C@@H](Cc1ccccc1)C(=O)O)C(C)C [PPI-348, cholyl-Aβ14-20] (Cholyl-HQKLVFF-OH)					Fold Increase in Lag Time (Aβ1-40 [1]; Table III, 33 mole %): 2.0 fold; inhibition at 33 mol % (Aβ1-40 [1]; Table V, 33 mol % inhibitor, read-out: % Inucl'n (percent reduction in maximum observed turbidity)): 70%; ΔLag (ratio of lag time with test compound to lag time of control) (Aβ1-40 [1]; Table V, 33 mole % inhibitor): 2.0
C[C@H](NC(=O)[C@H](C)NC(=O)[C@H](C)NC(=O)[C@H](C)NC(=O)[C@H](C)NC(=O)CC[C@@H](C)[C@H]1CC[C@H]2[C@@H]3[C@H](O)C[C@@H]4C[C@H](O)CC[C@]4(C)[C@H]3C[C@H](O)[C@]12C)C(=O)O [PPI-365, Cholyl-penta-alanine]	~1	0.8	-7		
CC(C)C[C@H](NC(=O)[C@H](CCCCN)NC(=O)[C@H](CCC(N)=O)NC(=O)CC[C@@H](C)[C@H]1CC[C@H]2[C@@H]3[C@H](O)C[C@@H]4C[C@H](O)CC[C@]4(C)[C@H]3C[C@H](O)[C@]12C)C(=O)N[C@H](C(=O)N[C@@H](Cc1ccccc1)C(=O)O)C(C)C [PPI-366] (Cholyl-QKLVF-OH)	3.1	3.1	-23		Fold Increase in Lag Time (Aβ1-40 [1]; Table IV, 10 mole %): 1.6 fold
CC(C)C[C@H](NC(=O)[C@H](CCCCN)NC(=O)CC[C@@H](C)[C@H]1CC[C@H]2[C@@H]3[C@H](O)C[C@@H]4C[C@H](O)CC[C@]4(C)[C@H]3C[C@H](O)[C@]12C)C(=O)N[C@H](C(=O)N[C@@H](Cc1ccccc1)C(=O)N[C@@H](Cc1ccccc1)C(=O)O)[C@@H](C)O [PPI-369] (Cholyl-KLTFF-OH)	~1	1.1	-16		
CC(C)C[C@H](NC(=O)[C@H](CCCCN)NC(=O)CC[C@@H](C)[C@H]1CC[C@H]2[C@@H]3[C@H](O)C[C@@H]4C[C@H](O)CC[C@]4(C)[C@H]3C[C@H](O)[C@]12C)C(=O)N[C@H](C(=O)N[C@@H](C)C(=O)N[C@@H](Cc1ccccc1)C(=O)O)C(C)C [PPI-370, cholyl-Aβ16-20 Phe19->Ala] (Cholyl-KLVAF-OH)	2.6	2.6	73		
CC(C)C[C@H](NC(=O)[C@H](CCCCN)NC(=O)CCCC[C@@H]1SC[C@@H]2NC(=N)N[C@@H]21)C(=O)N[C@H](C(=O)N[C@@H](Cc1ccccc1)C(=O)N[C@@H](Cc1ccccc1)C(=O)O)C(C)C [PPI-374, iminobiotinyl-Aβ16-20]	1.3	1.3	86		
CC(C)C[C@H](NC(=O)[C@@H](N)CCCCN)C(=O)N[C@H](C(=O)N[C@@H](Cc1ccccc1)C(=O)N[C@@H](Cc1ccccc1)C(=O)O)C(C)C [PPI-377, Aβ16-20]			0		
CC(C)C[C@H](N)C(=O)N[C@H](C(=O)N[C@@H](Cc1ccccc1)C(=O)N[C@@H](Cc1ccccc1)C(=O)N[C@@H](C)C(=O)O)C(C)C [PPI-386]				15	
CC(C)C[C@H](NC(=O)[C@@H](N)CCCCN)C(=O)N[C@H](C(=O)N[C@@H](Cc1ccccc1)C(=O)N[C@@H](Cc1ccccc1)C(N)=O)C(C)C [PPI-387]		1.3		−9	% Iext'n (percent reduction of thioflavin-T fluorescence) (Aβ1-40 [2]): 39%
CC(C)C[C@H](N)C(=O)N[C@H](C(=O)N[C@@H](Cc1ccccc1)C(=O)N[C@@H](Cc1ccccc1)C(=O)N[C@@H](C)C(N)=O)C(C)C [PPI-405]		1.3		11	% Iext'n (percent reduction of thioflavin-T fluorescence) (Aβ1-40 [2]): 70%
CC(C)C[C@H](NC(=O)OC(C)(C)C)C(=O)N[C@H](C(=O)N[C@@H](Cc1ccccc1)C(=O)N[C@@H](Cc1ccccc1)C(=O)N[C@@H](C)C(=O)O)C(C)C [PPI-435]				−5	
